This passage reports inhibition and IC50 results from patent US8609661B2, “Pyrimido-pyrrolo-quinoxalinedione inhibitors of cystic fibrosis transmembrane conductance regulator protein and uses therefor” (The Regents of the University of California, priority 2009, dated 2013).

By IC50 is commonly meant the concentration at which inhibition is half-maximal.

Test [1] deals with T1, human wildtype CFTR (Homo sapiens, UniProt P13569).
T1 construct: expressed in transfected cells; host or cells: Fischer rat thyroid (FRT) cells
In words: Fluorescence platereader assay of CFTR-mediated iodide influx (YFP quenching) in FRT cells. Conditions: for inhibition at 5 µM / inhibition at 25 µM: FRT; for IC50: apparent IC50 from concentration-inhibition data, fluorescence platereader assay. Format: cell-based. An outline of the steps:
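Fischer rat thyroid cells co-expressing human wildtype CFTR and the YFP-H148Q/1152L halide sensor were seeded at 20,000 cells per well in 96-well black-walled plates and assayed 48 h later at confluence. After PBS washes and a 15 min incubation, CFTR was maximally activated with an agonist mixture. Fluorescence was recorded for 2 s before and 10 s after adding 160 μL iodide-substituted PBS, and iodide influx rates came from non-linear regression.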

In test [2] the target is CFTR (Homo sapiens, UniProt P13569). To be noted: literature; depending on cell type and membrane potential; read-out: IC50 for CFTR chloride conductance block; cited from earlier work.
Setting [3] is: Table 2, screening, 5 μM, read-out: % Inhibition at 5 μM.
[4] abbreviates: Table 2, screening, 25 μM, read-out: % Inhibition at 25 μM.
Where [5] appears, read: read-out: % inhibition at 25/5 μM (5 μM value), Table 1, 5 μM compound.
[6] abbreviates: read-out: % inhibition at 25/5 μM (25 μM value), Table 1, 25 μM compound.

Where two headings read alike, the source gives them in different places.

T1 sequence (P13569 whole entry): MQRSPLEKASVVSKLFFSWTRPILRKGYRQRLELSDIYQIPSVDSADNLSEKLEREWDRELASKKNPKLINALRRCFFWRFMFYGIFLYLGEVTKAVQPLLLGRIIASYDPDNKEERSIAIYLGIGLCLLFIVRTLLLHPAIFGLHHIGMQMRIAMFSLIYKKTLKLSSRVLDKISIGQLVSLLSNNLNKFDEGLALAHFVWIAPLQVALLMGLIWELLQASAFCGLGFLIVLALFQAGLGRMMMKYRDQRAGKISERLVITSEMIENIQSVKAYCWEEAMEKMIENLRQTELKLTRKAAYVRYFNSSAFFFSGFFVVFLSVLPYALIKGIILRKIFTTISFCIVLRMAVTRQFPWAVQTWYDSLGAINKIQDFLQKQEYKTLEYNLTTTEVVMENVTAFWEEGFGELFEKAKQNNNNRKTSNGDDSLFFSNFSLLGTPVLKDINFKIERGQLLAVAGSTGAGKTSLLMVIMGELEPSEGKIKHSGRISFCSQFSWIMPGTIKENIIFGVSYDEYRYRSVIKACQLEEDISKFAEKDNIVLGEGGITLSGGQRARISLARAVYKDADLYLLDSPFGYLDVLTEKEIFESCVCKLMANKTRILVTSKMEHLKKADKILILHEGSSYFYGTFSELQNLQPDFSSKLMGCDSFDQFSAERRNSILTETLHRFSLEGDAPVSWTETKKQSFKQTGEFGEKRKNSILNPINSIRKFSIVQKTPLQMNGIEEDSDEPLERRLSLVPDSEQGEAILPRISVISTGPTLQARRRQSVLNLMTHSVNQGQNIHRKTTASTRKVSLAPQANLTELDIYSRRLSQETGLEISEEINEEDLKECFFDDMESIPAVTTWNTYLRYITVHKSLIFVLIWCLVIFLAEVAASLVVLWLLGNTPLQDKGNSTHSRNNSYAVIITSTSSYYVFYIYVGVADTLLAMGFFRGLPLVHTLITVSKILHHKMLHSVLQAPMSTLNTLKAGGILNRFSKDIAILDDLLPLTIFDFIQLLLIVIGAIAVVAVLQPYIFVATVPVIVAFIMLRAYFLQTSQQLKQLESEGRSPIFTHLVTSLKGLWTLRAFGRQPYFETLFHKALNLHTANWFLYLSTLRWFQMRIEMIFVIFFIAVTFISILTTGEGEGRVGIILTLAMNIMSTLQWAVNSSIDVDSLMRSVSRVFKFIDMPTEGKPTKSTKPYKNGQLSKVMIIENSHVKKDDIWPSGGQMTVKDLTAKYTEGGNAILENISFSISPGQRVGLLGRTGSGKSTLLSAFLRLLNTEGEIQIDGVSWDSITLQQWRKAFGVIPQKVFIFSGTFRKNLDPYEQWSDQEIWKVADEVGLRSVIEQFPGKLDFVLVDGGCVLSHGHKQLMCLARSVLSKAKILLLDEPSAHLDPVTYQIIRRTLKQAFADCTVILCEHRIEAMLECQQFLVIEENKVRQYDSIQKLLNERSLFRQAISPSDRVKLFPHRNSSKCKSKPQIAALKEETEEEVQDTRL
CFTR, sequence (P13569 whole entry, species assumed): as the sequence (P13569 whole entry) above

In the case of `COc1cc(O)ccc1C1Nc2ccccc2-n2c(-c3ccccc3F)c3c(=O)n(C)c(=O)n(C)c3c21` (stereo not drawn), the inhibition at 5 µM in test [1] (setting [3]) is below 10%. Also, in test [1] (setting [4]), the inhibition at 25 µM came to 41%.
In the case of `COc1ccc(-c2c3c(=O)n(C)c(=O)n(C)c3c3n2-c2ccccc2NC3c2ccccc2Cl)cc1` (stereo not drawn), the inhibition at 5 µM in test [1] (setting [3]) was below 10%. For the same compound, the inhibition at 25 µM in test [1] (setting [4]) was 47%.
As for `O=C(CNc1ccc2ccccc2c1)N/N=C/c1cc(Br)c(O)c(Br)c1O` [GlyH-101], the IC50 in test [2] is around 5 µM.
As for `Cn1c(=O)c2c(-c3ccccc3)n3c(c2n(C)c1=O)C(c1ccccc1F)Nc1ccccc1-3` (stereo not drawn) [PPQ-205, 7,9-Dimethyl-11-phenyl-6-(2-fluorophenyl)-5,6-dihydro-pyrimido[4′,5′-3,4]pyrrolo[1,2-a]quinoxaline-8,10-(7H,9H)-dione], the inhibition at 5 µM in test [1] (setting [5]) and in test [1] (setting [3]) was 61% each time. Moreover, the inhibition at 25 µM in test [1] (setting [6]) and in test [1] (setting [4]) was 81% in each case. The IC50 in test [1] was determined as 2000 nM.
Take `COc1ccc(O)c(C2Nc3ccccc3-n3c(-c4ccccc4)c4c(=O)n(C)c(=O)n(C)c4c32)c1` (stereo not drawn): the inhibition at 5 µM in test [1] (setting [3]) is below 10%. Besides, the inhibition at 25 µM in test [1] (setting [4]) came out at 33%.
For `Cn1c(=O)c2c(-c3ccccc3)n3c(c2n(C)c1=O)C(c1ccco1)Nc1ccccc1-3` (stereo not drawn) [PPQ-112, 7,9-Dimethyl-11-phenyl-6-(5-furan-2-yl)-5,6-dihydro-pyrimido[4′,5′-3,4]pyrrolo[1,2-a]quinoxaline-8,10-(7H,9H)-dione], in that order: 11% and 54%.
Consider `Cc1cc2c(cc1C)-n1c(-c3ccccc3)c3c(=O)n(C)c(=O)n(C)c3c1C(c1ccccc1)N2` (stereo not drawn) [PPQ-226, 2,3,7,9-Tetramethyl-11-phenyl-6-phenyl-5,6-dihydro-pyrimido[4′,5′-3,4]pyrrolo[1,2-a]quinoxaline-8,10-(7H,9H)-dione], for which the inhibition at 5 µM in test [1] (setting [3]) was 61%. Further, in test [1] (setting [4]), the inhibition at 25 µM came to 92%.
Consider `Cc1cccc(-c2c3c(=O)n(C)c(=O)n(C)c3c3n2-c2ccccc2NC3c2ccc(O)cc2)c1` (stereo not drawn) [PPQ-209, 7,9-Dimethyl-11-(3-methylphenyl)-6-(4-hydroxyphenyl)-5,6-dihydro-pyrimido[4′,5′-3,4]pyrrolo[1,2-a]quinoxaline-8,10-(7H,9H)-dione], for which the inhibition at 5 µM in test [1] (setting [5]) and in test [1] (setting [3]) was 71% in each case. For the same compound, the inhibition at 25 µM in test [1] (setting [6]) and in test [1] (setting [4]) was 94% throughout. Moreover, the half-inhibitory concentration (IC50) in test [1] was found to be 1700 nM.
